Test results from US12083111B2, “Use of hexokinase 2/mitochondria-detaching compounds for activating immune responses” (Vidac Pharma Ltd., priority 2016, dated 2024).

Experiments:
[1] = tested on: primary Balb/C mouse splenocytes (CD8+ T cells); assay: Activated primary splenocytes: FACS for CD44, CD62L and live cells; assay type: cell-based
Procedure: FIGS. 7A-F. Formula C administration shifts effector CD8+ T cells to central memory cells. Primary Balb/C mouse splenocytes were grown in culture and activated by anti-CD3e and anti CD28 antibodies to shift them towards CD8+/CD4+ phenotype. Cells were then treated with Formula C (FIG. 7E), 2-DG (2-deoxyglucose, positive control) (FIG. 7C), or vehicle (FIG. 7B, FIG. 7D) for 24 hours followed by FACS analysis for CD44 and CD62L.
Spleens from the 2 BALB/C female mice (8.5 weeks old) were injected with cold PBS in a […] to obtain cell suspension, using a 27 g needle. The spleens were then crushed using the back of a 10 ml syringe. The suspension was passed through a 21 g needle and filtered using a 70 um cells strainer. The plate was washed once with 10 ml PBS and the solution was filtered as well. Cells were centrifuged for 10 min at 1200 rpm, 4° C. The pellet was broken on the grill and re-suspended in 10 ml AKC X1 lysis buffer (1:10 dilution of X10 stock in Ultra-Pure Water). After 5 min on ice, PBS was added to a final volume of 50 ml, and cells were centrifuged for 10 min at 1200 rpm, 4° C. Pellet was re-suspended in 10 ml PBS and washed twice. After washing, pellet was re-suspended in 20 ml DCs medium and passed through a 40 μm cell strainer. Cells were suspended to 3×10^6 ml with DC medium and supplemented with 1:1000 (100 Units/ml) hIL-2 and 1:1000 (1 ug/ml) anti-CD28.
The cells were seeded 1 ml/well in a 24-well plate precoated with 5 μg/ml 250 μl/well of anti-CD3e and carefully washed twice with 0.5 ml PBS (−/−), cells were added on the side of the wells to avoid washing away the antibody.
Splenocytes were plated at 10^6 cells/well in a 24-well plate coated with 5 μg/ml anti-CD3e with soluble anti CD28 2 μg/ml and IL-2 100 units/ml. […]
On the following day, cells were stained with: ghost dye 1 ul/sample (live/dead), and the following antibodies: CD62L, CD44, CD3, CD4, CD8 and analyzed by fluorescence-activated cell sorting (FACS).

[2] = tested on: skin of UVB-exposed SKH-1 mice; assay: UVB-exposed SKH-1 mouse AK/cSCC model: histology and IHC of immune cells in skin; assay type: in vivo
Procedure: The formulation ingredients for vehicle, 2.5%, and 5% Formula C ointment consisted of: 32% Gelucire44/14® (Gattefossé, Saint-Priest, France), and 68% combined Labrasol® (Gattefossé, Saint-Priest, France) with corresponding amount of Formula C (w/w). New ointments were prepared every 2 weeks. The 40% topical solution was prepared just prior to use by mixing (w/w) 60% propylene glycol (Sigma, St. Louis, MO, USA) with 40% Formula C.
UVB-induced skin damage was adopted from previous publications. Forty-eight SKH-1 hairless female mice were chronically exposed to 1.25 times the Minimal Erythemal Dose (MED) of UVB radiation. Lamp VL-6.M was used, irradiating at 312 nm with an intensity of 0.89 mW/cm2 (validated on Day 44) at a distance of 15 cm. Determination of UVB irradiation Minimal Erythemal Dose (MED) was performed prior to the beginning of the study. Animals were UVB irradiated for different duration (starting at 30 sec) and the presence of erythema was recorded 24 and 48 hours later. 1.25 times the MED of UVB irradiation was established to be equal to an exposure time of 5 min. Mice were UVB irradiated for 4-5 min at each irradiation session during the 16 weeks of pre-treatment disease induction. Prior to every irradiation session, the lamp was turned on for 5 min to ensure it reaches its maximal intensity. The irradiation schedule was five times a week for two weeks, one week off, and then three times a week through week 16. By that time, more than 60% of the animals had developed at least one SCC lesion. Three days after the final irradiation dose, the mice were randomly assigned to 1 of 4 treatment groups (N=12 mice/group), with similar tumor burden distribution between groups, and a 50-day treatment phase started. The 6 cm^2 (2×3 cm) treatment area was marked on the back of the mice with a black eight points rectangle tattoo. Five spare mice with the highest tumor burden were excluded from the main study. Treatment groups included: vehicle, 2.5% or 5% Formula C ointment, 50 μl of which was applied once-daily for 50 days, or 50 μl of 40% Formula C topical solution applied once-daily for the first 5 days of every three-week cycle (total of three treatment cycles). Following administration, each animal was placed in individual cage without bedding for 1.5 hours, until the ointment was absorbed.
Histopathological analysis and IHC was performed according to standard protocols. Primary antibodies used: Rabbit anti-CD3 (SP7), rabbit anti-F4/80 (SB-M3072, SB-M4152, Nordic Biosite, Täby, Sweden), mouse anti-Langerin/CD207 (DDX0361, Dendritics, Lyon, France). A polymer system was used as a secondary antibody (KDB-10046 and KDB-10007, Nordic Biosite, Täby, Sweden). Semi-quantitative analysis was done in a blinded manner by a single experienced pathologist scoring ×40 high power fields, 7 different fields per slide.
Statistical analysis was carried out using Graphpad Prism version 5.03 (Graphpad Software, San Diego, CA).

B16-F10 melanoma mice = assay: Ear inflammation score in the mouse B16-F10 melanoma model; assay type: in vivo; settings: scale 0-4, topical
Procedure: (§1) Female C57Bl/6 mice at 8 weeks of age were purchased from Harlan, Jerusalem, Israel. The animals were housed (6 or 7/cage) under controlled conditions (temperature, light, humidity) and given food and water ad libitum. After 14 days of acclimatization, the animals were inoculated with 0.25*10^6 B16-F10 melanoma cells/mouse in 30 μl PBS under the skin of the right ear of each mouse.
(§2) The mice were inoculated with B16-F10 melanoma cells and divided randomly into […] (9 mice each): a) B16-F10 inoculated, untreated; and b) B16-F10 inoculated, Formula C (50% v/v in olive oil) treated
(§3) The treatment was initiated when the tumors reached the target volume of approximately 1 mm^3. Drug was topically administered to the area of the tumor daily for 18 days.
Inflammation was graded on a scale of 0-4 as: 0 (absence of inflammation), 1 (redness), 2 (tissue inflammation), 3 (pronounced tissue inflammation), and 4 (damage to the ear).

B16-F10 melanoma cells = assay: Topical treatment in the mouse B16-F10 melanoma model: tumor volume; assay type: in vivo; settings: 50% v/v in olive oil
Procedure: Mouse melanoma (B16-F10) cells were used. Mouse B16-F10 melanoma cells were maintained in DMEM. Media was supplemented with 10% heat-inactivated FCS, penicillin (100 U/ml), streptomycin (100 μg/ml), Sodium pyruvate (2 mM), and L-glutamine (4 mM). Confluent cultures were washed with PBS, detached with trypsin (0.25%), centrifuged, and subcultured in 96-well microtiter test plates.
as §1, §2, §3

[3] = tested on: CT26 mouse colorectal cancer cells; assay: CT26 syngeneic colorectal cancer model: tumor volume; assay type: in vivo; settings: Balb/C mice, SC with esterase-inhibitor BNPP (IP)
Procedure: (§4) Colorectal cancer was induced in Balb/C mice using CT26 mouse colorectal cancer cells. Formula C was administered SC with esterase-inhibitor BNPP (IP).

[4] = tested on: THP-1 human monocytes differentiated to macrophages; assay: IL-1β secretion from LPS-stimulated THP-1-derived macrophages (ELISA); assay type: cell-based; settings: PMA-differentiated, ELISA of culture medium
Procedure: FIG. 4. Formula C stimulates IL-1β secretion in activated human macrophages in vitro. THP-1 human monocytes were differentiated to mature macrophages and stimulated with LPS (Lipopolysaccharide) followed by Formula C treatment. Secreted IL-1β was analyzed in the culture medium by ELISA.
The human monocyte cell line, THP-1, was grown in 10% FCS in RPMI medium. Cells were plated in 24 well plate, 5*10^6 cells/well and were differentiated to macrophages in the presence of 0.5 uM PMA (phorbol 12-myristate 13-acetate) for 24 hr. Media was replaced to contain LPS (10 ug/mL), 24 hr stimulation. ATP was added for 2 hours. Supernatants were collected and assayed by ELISA for the presence of IL-1β.

[5] = tested on: macrophages in CT26 tumors; assay: FACS of CT26 tumors for macrophage markers MHCII and CD206 (M2 to M1 shift); assay type: in vivo, mouse; settings: 150 mg/kg, day 20
Procedure: (§5) FIG. 6B. Formula C administration shifts macrophages in vivo from pro-tumor (M2) macrophages to antitumor (M1) macrophages. CT26 tumors from Formula C or vehicle-treated Balb/C mice with CT26 mouse colorectal cancer was analyzed for MHCII marker by FACS. Dark color: Vehicle treated CT26 tumors from Balb/C mice (day 20). Light color: Formula C (150 mg/kg) treated CT26 tumors from Balb/C mice (day 20).
as §5, with “6C.” for “6B.”, “CD206.” for “MHCII marker by FACS.”
as §4
Pro-tumor M2 Macrophages are characterized by low MHCII and high CD206. In contrast, anti-tumor M1 Macrophages are characterized by high MHCII and low CD206. CT26 tumors from Formula C or vehicle-treated Balb/C mice with CT26 mouse colorectal cancer were analyzed for MHCII (FIG. 6B) and CD206 (FIG. 6C) levels 20 days after treatment started.

[6] = tested on: mouse bone marrow-derived macrophages (BMDM); assay: IL-1β secretion and viability in primary bone marrow-derived macrophages; assay type: cell-based; settings: BALB/C or C57BL BMDM
Procedure: BALB/C mouse bone marrow-derived macrophages (BMDM) or C57BL mouse bone marrow-derived macrophages were seeded at 3×10^4 cells/well in 96 well plates. The following day, cells were stimulated with interferon-gamma (IFNγ) overnight 50 ng/ml. Then Ultra-pure LPS (100 ng/ml) was added for 4 hours, followed by compound treatment for overnight, except for ATP (all compounds were added on top); ATP for 40 min. ELISA was performed on supernatants for mouse IL-1β detection. ATP and 2-DG were used as positive controls. No signal without IFN-γ even when seeded at 100,000 cells per well.

[7] = high dose (40%) group, trending also at lower doses
[8] = topical 2.5%, 5% ointment or 40% solution, 50-day treatment phase

SMILES	percentage of live cells ([1]; stimulated splenocytes, 24 hours treatment, ghost dye)	CD3+ T cells in skin versus vehicle-treated [2, 7]	Langerin+ dendritic cells in skin versus vehicle-treated [2, 7]	mast cells in skin (toluidine blue) versus vehicle-treated [2, 8]	overall inflammation (H&E staining) versus vehicle-treated [2, 8]	F4/80 general staining for macrophages ([2]; topical, 50-day treatment phase, data not shown)	average inflammation score (B16-F10 melanoma mice; before the 18th day of treatment)	average inflammation score (B16-F10 melanoma mice; by about the 15th day of treatment)	tumor volume compared with untreated group (B16-F10 melanoma cells; topical daily for 18 days, after day 11)	tumor growth (B16-F10 melanoma cells; topical daily, C57Bl/6 mice, right ear, first 11 days)	tumor volume [3]	IL-1β secretion [4]	CD206 levels versus vehicle-treated [5]	MHCII levels versus vehicle-treated [5]	IL-1β secretion ([6]; IFNγ then LPS, compound overnight, ELISA)	cell viability ([6]; even at high dosage)	CD44 and CD62L expression (shift from effector to memory cells) versus vehicle-treated ([1]; anti-CD3e/anti-CD28 stimulated splenocytes, 24 hours treatment)	percentage of live cells ([1]; female, BALB/c, mouse, 24 h)
O=CC[C@@H](O)[C@H](O)[C@H](O)CO [Formula 2-DG, 2-deoxyglucose, reference compound]	Neither Formula C nor 2-DG treatment significantly affected the percentage of live cells																	
CC/C=C\CC1C(=O)CCC1CC(=O)Oc1cccc2cccnc12 (stereo not drawn) [Formula C]		statistically-significant increase	statistically-significant increase	statistically significant, dose-related increase	without apparent difference	no change	over 3	about 3	significantly lower than the tumor volume in the untreated group	no tumor growth for 11 days	decreased tumor volume	induced IL-1β secretion	lower CD206 levels	higher MHCII levels	dose-dependently elicited IL-1β secretion	little effect on cell viability	higher CD44 and higher CD62L expression	Neither Formula C nor 2-DG treatment significantly affected the percentage of live cells
